# Source: PubChem BioAssay (NCI)
#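 Each compound was tested at five concentrations against cells in 96-well plates for 48 hours. GI50 marks 50% less growth. TGI is the concentration that stops growth completely.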
# Assays:
# Assay in all cases: inhibition of tumour cell growth, NCI panel, 48 h
# COLO 205 colon = system: COLO 205 colon
# UACC-62 melanoma = system: UACC-62 melanoma
# SF-539 CNS = system: SF-539 CNS
# BT-549 breast = system: BT-549 breast
# HT29 colon = system: HT29 colon
# NCI-H226 lung = system: NCI-H226 lung
# M14 melanoma = system: M14 melanoma
# 786-0 renal = system: 786-0 renal
# RXF 393 renal = system: RXF 393 renal
# SK-MEL-5 melanoma = system: SK-MEL-5 melanoma
# TK-10 renal = system: TK-10 renal
# SW-620 colon = system: SW-620 colon
# T-47D breast = system: T-47D breast
# MALME-3M melanoma = system: MALME-3M melanoma
# SK-MEL-2 melanoma = system: SK-MEL-2 melanoma
# UACC-257 melanoma = system: UACC-257 melanoma
# NCI-H460 lung = system: NCI-H460 lung
# HCT-116 colon = system: HCT-116 colon
# MDA-MB-435 = system: MDA-MB-435
# OVCAR-3 ovarian = system: OVCAR-3 ovarian
# UO-31 renal = system: UO-31 renal
# HCC-2998 colon = system: HCC-2998 colon
# SNB-75 CNS = system: SNB-75 CNS
# CCRF-CEM leukemia = system: CCRF-CEM leukemia
# SF-295 CNS = system: SF-295 CNS
# HS 578T breast = system: HS 578T breast
# IGROV1 ovarian = system: IGROV1 ovarian
# OVCAR-8 ovarian = system: OVCAR-8 ovarian
# HCT-15 colon = system: HCT-15 colon
structure (smiles),measurement,setting,value
Cc1c2ccc(N(C)c3ccnc(Nc4cccc(S(N)(=O)=O)c4)n3)cc2nn1C,TGI,COLO 205 colon,> 25 µM
same,GI50,UACC-62 melanoma,8.38 µM
same,TGI,UACC-62 melanoma,> 25 µM
same,GI50,SF-539 CNS,2.39 µM
same,TGI,SF-539 CNS,> 20.4 µM
same,GI50,BT-549 breast,9.48 µM
same,TGI,BT-549 breast,> 25 µM
same,GI50,HT29 colon,8.03 µM
same,TGI,HT29 colon,> 25 µM
same,GI50,NCI-H226 lung,6.2 µM
same,TGI,NCI-H226 lung,> 25 µM
same,GI50,M14 melanoma,9.73 µM
same,TGI,M14 melanoma,> 25 µM
same,GI50,786-0 renal,13.2 µM
same,TGI,786-0 renal,> 25 µM
same,GI50,RXF 393 renal,7.14 µM
same,TGI,RXF 393 renal,> 22.7 µM
same,GI50,SK-MEL-5 melanoma,6.01 µM
same,TGI,SK-MEL-5 melanoma,> 17.1 µM
same,GI50,TK-10 renal,10.5 µM
same,TGI,TK-10 renal,> 25 µM
same,GI50,SW-620 colon,11.7 µM
same,TGI,SW-620 colon,> 25 µM
same,GI50,T-47D breast,5.27 µM
same,TGI,T-47D breast,21.8 µM
same,GI50,MALME-3M melanoma,5.74 µM
same,TGI,MALME-3M melanoma,20.2 µM
same,GI50,SK-MEL-2 melanoma,7.06 µM
same,TGI,SK-MEL-2 melanoma,16.7 µM
same,GI50,UACC-257 melanoma,12.2 µM
same,TGI,UACC-257 melanoma,> 25 µM
same,GI50,NCI-H460 lung,7.23 µM
same,TGI,NCI-H460 lung,> 25 µM
same,GI50,HCT-116 colon,8.23 µM
same,TGI,HCT-116 colon,> 25 µM
same,GI50,MDA-MB-435,6.74 µM
same,TGI,MDA-MB-435,> 22.3 µM
same,GI50,OVCAR-3 ovarian,14.2 µM
same,TGI,OVCAR-3 ovarian,> 25 µM
same,GI50,UO-31 renal,5.96 µM
same,TGI,UO-31 renal,> 23.1 µM
same,GI50,HCC-2998 colon,18.9 µM
same,TGI,HCC-2998 colon,> 25 µM
same,GI50,SNB-75 CNS,4.33 µM
same,TGI,SNB-75 CNS,> 22.9 µM
same,GI50,CCRF-CEM leukemia,9.21 µM
same,TGI,CCRF-CEM leukemia,> 25 µM
same,GI50,SF-295 CNS,6.81 µM
same,TGI,SF-295 CNS,> 19.9 µM
same,GI50,HS 578T breast,6.8 µM
same,TGI,HS 578T breast,> 25 µM
same,GI50,IGROV1 ovarian,10.1 µM
same,TGI,IGROV1 ovarian,> 25 µM
same,GI50,OVCAR-8 ovarian,9.91 µM
same,TGI,OVCAR-8 ovarian,> 25 µM
same,GI50,HCT-15 colon,9.34 µM
same,TGI,HCT-15 colon,> 25 µM
